In patent US6916471B2, “Red blood cells loaded with S-nitrosothiol and uses therefor” (Duke University, priority 1995, dated 2005):

What was measured:
[1] = test system: Sprague-Dawley rat; assay: Mean arterial pressure after femoral vein injection of loaded red blood cells; assay type: in vivo; details: 50 mg/kg
Description: Systemic administration of cell-free Hb results in hypertensive responses which have been attributed to NO scavenging by the heme (Vogel, W. M., et al., Am. J. Physiol. 251:H413-H420 (1986); Olsen, S. B., et al., Circulation 93:329-332 (1996)). To determine if SNO-Hb is free of this adverse affect, and to explore if in vitro mechanisms of NO release extend to the in vivo circumstance, we compared responses to Hb and SNO-Hb infused as a bolus into the femoral vein of anesthetized rats. […] Thus, the profiles of these compounds in vivo closely resemble those seen in vitro (FIG. 4A). […] These changes in mean blood pressure of ˜10% are on the order of those that differentiate normotension from hypertension in man, and in the therapeutic range of some antihypertensive regimens. […] The bioactivity of SNO-Hb in blood, where S—NO/heme stoichiometries approach 1:50,000, is a dramatic illustration of the resistence of this NO-related activity to Hb(Fe) inactivation. […]
Rats were anesthetized by intraperitoneal injection of pentobarbital and the femoral arteries and veins accessed by local cut down. The artery was then cannulated and the blood pressure monitored continuously using a Viggo Spectramed pressure transducer attached to a Gould recorder. […]

[2] = Endogenous SNO-Hb and Hb(FeII)NO in blood by photolysis-chemiluminescence; assay type: in vivo, rat; details: 45 minutes after infusion, 50 mg/kg
Description: To determine if SNO-Hb is naturally occuring in the blood, and if so, its relationship to the O2 transport capacity and nitrosylated-heme content of red cells, we developed an analytical approach to assay the S-nitrosothiol and nitrosyl-heme content of erythrocytes (Table 2). […] Hb was then purified from red cells and assayed for RSNO and (FeII)NO content. Arterial blood contained significant levels of SNO-Hb, whereas levels were virtually undetectable in venous blood (Table 2). […] The arterial-venous distribution seen for SNO-Hb was reversed in the case of Hb(FeII)NO, which was detected in higher concentrations in partially deoxygenated (venous) erythrocytes (Table 2). […] However, levels of Hb(FeII)NO in vivo are typically too low to be detected (by EPR) and SNO-Hb is EPR-silent (i.e. it is not paramagnetic). Thus, photolysis-chemiluminesence represents an important technological advance, as it is the first methodology capable of making quantitative and functional assessments of NO binding to Hb under normal physiological conditions.
Blood was obtained from the left ventricle (arterial) and jugular vein (venous) of anesthetized Sprague-Dawley rats. […] In 24 rats, Hb samples were divided in two aliquots which were then treated or not treated with 10-fold excess HgCl2 over protein concentration as measured by the method of Bradford. […]

[3] = test system: patient with primary pulmonary hypertension; assay: Inhaled ethyl nitrite in patients with primary pulmonary hypertension, red blood cell NO; assay type: in vivo, human; details: PPH patients
Description: A patient with primary pulmonary hypertension, with blood having starting values for SNO-hemoglobin, iron nitrosylhemoglobin and total NO/hemoglobin molar ratio as shown in the left bar of FIG. 15, was given an NO-donating drug by inhalation. Ethyl nitrite was diluted in ethanol. Oxygen carrier gas was passed though the ethyl nitrite solution and delivered to the patient at 10 liters/min. After 10 minutes, blood was withdrawn and analyzed by photolysis chemoluminescence. Results are shown in the right bar of FIG. 15, for the patient's blood after treatment. SNO-Hb and total Hb-bound NO levels were depressed in the patient relative to normal controls, but rose during inhalation of ethyl nitrite gas. The experiment was repeated for other patients (n=5).

[4] = test system: rabbit aortic ring; assay: Rabbit aortic ring perfused with blood of PPH patient after ethyl nitrite; details: 1% oxygen
Description: The downward deflection on the plot indicates a dilation of the blood vessel, which for the “NO” blood, occurred for approximately 30 seconds.

[5] = test system: rabbit aortic ring; assay: Rabbit aortic ring bioassay of CYSNO-treated blood with or without glutathione; details: 100 μM
Description: NO-loaded red blood cells were produced by incubating whole human blood in a solution comprising S-nitrosocysteine (CYSNO) at a molar ratio of 1:100 CYSNO:hemoglobin for 5 minutes at room temperature. The bioactivity of the treated blood was tested in a rabbit aortic ring bioassay, in the presence (+GSH) or absence (−GSH) of 100 μM glutathione.

[6] = test system: rabbit aortic ring; assay: CysNOEE-treated human blood, rabbit aortic ring bioassay; details: CysNOEE:heme 1:100 to 10:1; 21% and 1% oxygen
Description: S-nitrosocysteine ethyl ester (CysNOEE) was added to human whole blood to interact with the red blood cells. CysNOEE:Heme (see FIG. 22) is the molar ratio of CysNOEE to heme in hemoglobin contained in red blood cells, for CysNOEE incubated with blood for 5 minutes at room temperature. After these incubations at different CysNOEE:heme ratios (1:100, 1:10, 1:1 and 10:1; see FIG. 22), red blood cell membranes were isolated by lysis and centrifugation, and S-nitrosothiol (SNO) content of the isolated membranes was determined by photolysis chemiluminescence assay. The concentrations of SNO in the red blood cell membranes were plotted in FIG. 22 as membrane SNO. Bioactivity of red blood cells—from release of biologically active NO—was determined in a rabbit aortic ring bioassay under two different concentrations of oxygen, and the results are plotted in FIG. 22 as 21% oxygen, vasoactivity, and 1% oxygen, vasoactivity.

SMILES: CNC(=N)NCCC[C@H](N)C(=O)O [L-NMMA, N^G-monomethyl-L-arginine]
- increase in blood pressure [1]: about 20 mm Hg
- depletion of SNO-Hb [2]: 82%
- depletion of total Hb-NO [2]: 50±18%

SMILES: CCON=O [ethyl nitrite]
- increase in SNO-Hb in blood ([3]; inhaled for 10 minutes, n=5): statistically significant
- levels of iron nitrosylhemoglobin before and after treatment ([3]; inhaled for 10 minutes, n=5): no statistical difference
- pulmonary vascular resistance and systemic oxygenation ([3]; inhaled): decreases in pulmonary vascular resistance and improved systemic oxygenation
- duration of dilation of aortic ring by blood of treated patient [4]: approximately 30 seconds

SMILES: N[C@@H](CCC(=O)N[C@@H](CS)C(=O)NCC(=O)O)C(=O)O [Glutathione, glutathione]
- effect on red blood cell-mediated vasodilation [5]: potentiates the bioactivity of red blood cell-mediated vasodilation

SMILES: CCOC(=O)[C@@H](N)CSN=O [S-nitrosocysteine ethyl ester]
- vasoactivity of treated red blood cells [6]: relaxes blood vessels, most effectively under ischemic conditions
